The target in one assay is T1, VCPIP (Homo sapiens, UniProt Q96JH7).
T1 construct: gene VCPIP1
T1 sequence (Q96JH7 1-1222): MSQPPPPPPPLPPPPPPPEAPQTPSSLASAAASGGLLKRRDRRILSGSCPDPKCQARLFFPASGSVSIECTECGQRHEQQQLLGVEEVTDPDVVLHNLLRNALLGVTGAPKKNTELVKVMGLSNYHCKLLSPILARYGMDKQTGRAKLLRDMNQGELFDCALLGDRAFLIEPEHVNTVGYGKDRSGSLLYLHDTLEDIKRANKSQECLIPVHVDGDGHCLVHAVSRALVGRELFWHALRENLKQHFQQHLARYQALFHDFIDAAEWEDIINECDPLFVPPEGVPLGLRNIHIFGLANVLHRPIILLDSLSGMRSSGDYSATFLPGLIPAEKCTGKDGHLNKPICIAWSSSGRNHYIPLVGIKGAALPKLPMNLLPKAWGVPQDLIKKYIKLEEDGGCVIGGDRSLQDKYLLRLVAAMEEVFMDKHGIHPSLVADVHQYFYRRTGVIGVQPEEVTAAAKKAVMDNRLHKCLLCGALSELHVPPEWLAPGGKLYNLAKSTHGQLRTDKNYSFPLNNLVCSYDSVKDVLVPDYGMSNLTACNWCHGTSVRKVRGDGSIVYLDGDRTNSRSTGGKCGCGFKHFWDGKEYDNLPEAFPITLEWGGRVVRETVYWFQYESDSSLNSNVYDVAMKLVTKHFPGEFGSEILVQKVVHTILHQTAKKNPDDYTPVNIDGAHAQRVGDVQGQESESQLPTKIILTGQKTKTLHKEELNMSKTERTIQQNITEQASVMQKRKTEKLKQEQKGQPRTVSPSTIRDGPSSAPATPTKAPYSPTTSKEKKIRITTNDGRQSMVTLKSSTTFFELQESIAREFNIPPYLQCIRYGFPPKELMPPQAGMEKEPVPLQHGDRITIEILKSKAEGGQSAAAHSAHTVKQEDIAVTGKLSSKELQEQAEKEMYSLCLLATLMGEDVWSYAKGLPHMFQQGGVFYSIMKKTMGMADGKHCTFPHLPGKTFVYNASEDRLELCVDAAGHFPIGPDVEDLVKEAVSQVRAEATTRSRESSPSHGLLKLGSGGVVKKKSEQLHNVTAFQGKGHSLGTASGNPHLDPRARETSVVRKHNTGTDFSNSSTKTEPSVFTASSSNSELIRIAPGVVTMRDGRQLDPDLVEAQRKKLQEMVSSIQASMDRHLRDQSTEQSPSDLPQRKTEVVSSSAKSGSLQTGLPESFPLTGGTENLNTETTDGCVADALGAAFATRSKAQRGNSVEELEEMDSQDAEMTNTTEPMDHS
In words: biochemical. On the set-up: Ubiquigent DUB profiler selectivity panel, remaining enzyme activity as % of control. As to conditions: read-out: % of control remaining. As for the experimental part: (§1) Previous work has reported IC50 values for a series of benzosulphonamide inhibitors, of which all those <1 μM were screened for selectivity, in comparison to three other USP family members ([20], [21]). We have selected one of these compounds (CMPD-39, Fig 1A) for a more rigorous test of selectivity provided by the Ubiquigent DUB profiler screening platform comprising >40 DUBs. […] To test engagement of the inhibitor with USP30 applied to intact cells, we assayed competition with Ub-PA (Ub-propargylamide). Ub-PA covalently binds to the USP30 active site leading to a characteristic upshift on a SDS–PAGE gel ([22]). If a drug blocks access to the catalytic site, then the probe modification is blocked and the apparent molecular weight of USP30 shifts down accordingly. […] A robust proxy read-out for target engagement is the enhancement of TOMM20 ubiquitylation after mitochondrial depolarization ([6], [16]). This second assay indicates a maximal effect with 200 nM CMPD-39 applied to RPE1-YFP-PRKN cells (Fig 1D).  Figure 1. CMPD-39 is a selective USP30 inhibitor. (A) Chemical structure of CMPD-39. (B) DUB specificity screen (DUB profiler, Ubiquigent) with 1-100 μM CMPD-39. […] Samples were incubated with CMPD-39 for 2 h at the indicated concentrations, then incubated with HA-Ub-PA probe for 10 min at 37°C and immunoblotted as shown. Red arrow indicates unbound USP30; blue arrow represents probe bound USP30. (D) Inhibition of USP30 enhances the ubiquitylation of TOMM20 in YFP-PRKN over-expressing hTERT-RPE1 cells in a concentration dependent manner in response to mitophagy induction. Cells were treated for 1 h with DMSO or antimycin A and oligomycin A (AO; 1 μM each) in the absence or presence of CMPD-39 at the indicated concentrations, lysed, and analyzed by Western blotting. Black arrow indicates unmodified TOMM20, ubiquitylated species are indicated by red (mono-ubiquitylated) or blue arrow heads. […] Source data are available for this figure.

In the next assay the target is T2, AMSH-LP (Homo sapiens, UniProt Q96FJ0).
T2 construct: gene STAMBPL1
T2 sequence (Q96FJ0 1-436): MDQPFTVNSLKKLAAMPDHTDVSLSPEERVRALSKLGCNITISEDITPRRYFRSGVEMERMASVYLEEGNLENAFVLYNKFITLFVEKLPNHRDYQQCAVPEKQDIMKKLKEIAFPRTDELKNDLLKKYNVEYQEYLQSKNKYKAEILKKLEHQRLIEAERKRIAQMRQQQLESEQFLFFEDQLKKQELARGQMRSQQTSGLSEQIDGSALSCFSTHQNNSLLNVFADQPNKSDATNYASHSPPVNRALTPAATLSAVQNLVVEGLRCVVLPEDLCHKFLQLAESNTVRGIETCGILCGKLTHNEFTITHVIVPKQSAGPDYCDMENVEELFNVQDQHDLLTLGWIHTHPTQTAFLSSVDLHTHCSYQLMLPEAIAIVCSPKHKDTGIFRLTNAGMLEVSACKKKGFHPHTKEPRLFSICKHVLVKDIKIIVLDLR
In words: biochemical. On the set-up: Ubiquigent DUB profiler selectivity panel, remaining enzyme activity as % of control. As to conditions: read-out: % of control remaining. As for the experimental part: as §1

As to `CC(C)(C)NS(=O)(=O)c1ccc(NC(=O)[C@H](Cc2ccccc2)NC(=O)c2ccc(F)cc2)cc1` [compound 39, CMPD-39], at VCPIP, the remaining activity at 1 µM is 109%, the remaining activity at 10 µM amounted to 96.5% and the remaining activity at 100 µM was found to be 95.6%. Besides, at AMSH-LP, the remaining activity at 1 µM worked out at 109%, the remaining activity at 10 µM amounted to 102% and the remaining activity at 100 µM is 112%.

For the origin of these results see publication PMC8645336, “Benchmarking a highly selective USP30 inhibitor for enhancement of mitophagy and pexophagy” (Life Science Alliance, 2021).
